Earlier results as cited in patent US12673067B2, “Methods, agents, and devices for local neuromodulation of autonomic nerves” (Tulavi Therapeutics, Inc., priority 2016, dated 2026).
Where two headings read alike, the source gives them in different places. One block for each compound: values may come before it.

How the values were obtained:
FFA1 [1] = target: T1, FFA1 (Homo sapiens, UniProt O14842); settings: footnote b: insulin secretion/DMR assay
FFA2 = target: T2, FFA2 (Homo sapiens, UniProt O15552)
T2 sequence (O15552 1-330): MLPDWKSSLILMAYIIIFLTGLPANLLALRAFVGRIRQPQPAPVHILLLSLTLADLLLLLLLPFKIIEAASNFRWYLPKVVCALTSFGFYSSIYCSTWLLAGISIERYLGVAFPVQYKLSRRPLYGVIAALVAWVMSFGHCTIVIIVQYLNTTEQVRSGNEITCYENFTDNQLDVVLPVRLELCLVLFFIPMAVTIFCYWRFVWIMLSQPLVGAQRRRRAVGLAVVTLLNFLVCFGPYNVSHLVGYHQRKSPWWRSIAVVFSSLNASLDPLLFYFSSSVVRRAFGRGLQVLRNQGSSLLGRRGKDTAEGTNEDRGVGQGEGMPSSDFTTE

FFA3 = target: T3, FFA3 (Homo sapiens, UniProt O14843)
T3 sequence (O14843 1-346): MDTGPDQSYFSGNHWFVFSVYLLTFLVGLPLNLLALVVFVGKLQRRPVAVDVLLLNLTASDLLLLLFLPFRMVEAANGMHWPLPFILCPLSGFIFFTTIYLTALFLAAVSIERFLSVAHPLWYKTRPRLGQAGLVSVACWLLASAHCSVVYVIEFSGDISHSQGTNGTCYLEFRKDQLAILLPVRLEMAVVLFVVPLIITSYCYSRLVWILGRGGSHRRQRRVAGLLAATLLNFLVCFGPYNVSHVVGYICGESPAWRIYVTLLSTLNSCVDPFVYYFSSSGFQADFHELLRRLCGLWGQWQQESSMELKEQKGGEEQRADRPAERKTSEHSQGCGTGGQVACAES

Aquaporin 4 (AQP4) = settings: pretreatment, mouse focal cerebral ischemia
stellate ganglion = settings: dog, in vivo
FFA1 [2] = target: T1, FFA1; settings: Ca2+ mobilization, fluorescent indicator
H+K+ATPase = target: T4, H+K+ATPase (Oryctolagus cuniculus, UniProt P27112); settings: microsomal membranes from rabbit fundic mucosa; read-out: IC50, inhibition of isolated H+K+ATPase enzyme activity
T4 construct: a preparation of microsomal membranes from rabbit fundic mucosa; from tissue; host or cells: rabbit fundic mucosa, microsomal membranes

PPARα = target: T5, PPARα (Homo sapiens, UniProt Q07869)
T5 sequence (Q07869 1-468): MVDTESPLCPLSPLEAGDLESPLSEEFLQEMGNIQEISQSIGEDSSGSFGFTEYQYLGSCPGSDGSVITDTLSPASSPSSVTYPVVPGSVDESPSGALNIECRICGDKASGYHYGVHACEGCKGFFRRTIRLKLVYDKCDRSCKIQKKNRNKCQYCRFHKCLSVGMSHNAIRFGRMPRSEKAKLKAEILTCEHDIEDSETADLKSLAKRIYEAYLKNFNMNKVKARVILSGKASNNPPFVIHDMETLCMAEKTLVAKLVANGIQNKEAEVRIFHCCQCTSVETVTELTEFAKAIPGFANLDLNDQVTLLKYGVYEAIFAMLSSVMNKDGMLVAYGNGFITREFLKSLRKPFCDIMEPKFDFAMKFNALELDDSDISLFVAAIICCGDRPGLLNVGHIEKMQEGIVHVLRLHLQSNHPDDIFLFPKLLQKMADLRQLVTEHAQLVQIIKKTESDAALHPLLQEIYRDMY

PPARδ = target: T6, PPARδ (Homo sapiens, UniProt Q03181)
T6 sequence (Q03181 1-441): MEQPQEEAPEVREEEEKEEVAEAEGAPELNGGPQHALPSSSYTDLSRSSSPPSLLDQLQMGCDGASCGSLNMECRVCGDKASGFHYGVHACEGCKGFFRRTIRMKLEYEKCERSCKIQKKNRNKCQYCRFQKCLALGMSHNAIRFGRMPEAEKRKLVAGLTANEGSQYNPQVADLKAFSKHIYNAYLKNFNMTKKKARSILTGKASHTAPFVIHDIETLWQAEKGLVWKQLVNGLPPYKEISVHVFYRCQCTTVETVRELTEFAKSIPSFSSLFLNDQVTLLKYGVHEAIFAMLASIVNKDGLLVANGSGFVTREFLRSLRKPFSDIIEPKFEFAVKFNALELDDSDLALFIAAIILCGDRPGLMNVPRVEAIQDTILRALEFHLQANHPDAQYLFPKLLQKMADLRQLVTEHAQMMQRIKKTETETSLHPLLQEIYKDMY

PPARγ = target: T7, PPARγ (Homo sapiens, UniProt P37231)
T7 sequence (P37231 1-505): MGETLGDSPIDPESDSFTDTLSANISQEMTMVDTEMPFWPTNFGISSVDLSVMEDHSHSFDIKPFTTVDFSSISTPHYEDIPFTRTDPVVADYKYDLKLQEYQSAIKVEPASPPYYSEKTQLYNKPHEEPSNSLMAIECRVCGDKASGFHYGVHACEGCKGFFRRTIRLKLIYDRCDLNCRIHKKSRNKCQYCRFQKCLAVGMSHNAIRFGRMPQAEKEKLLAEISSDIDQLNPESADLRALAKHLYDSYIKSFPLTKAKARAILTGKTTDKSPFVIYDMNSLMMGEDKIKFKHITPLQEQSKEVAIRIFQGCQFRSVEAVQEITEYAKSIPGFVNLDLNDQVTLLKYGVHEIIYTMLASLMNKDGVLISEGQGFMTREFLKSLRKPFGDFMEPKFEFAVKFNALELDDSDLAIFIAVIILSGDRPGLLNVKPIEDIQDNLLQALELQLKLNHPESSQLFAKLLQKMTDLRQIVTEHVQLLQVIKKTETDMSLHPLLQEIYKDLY

FFA1 [3] = target: T1, FFA1; settings: footnote a: ERK activation (Smith 2009) or aequorin reporter (Kotarsky 2003)
[4] = test system: organic anion transporters (OAT); settings: at 0.5-1 mM
GPR120 = target: T8, GPR120 (Homo sapiens, UniProt Q5NUL3); settings: Ca2+ mobilization, fluorescent indicator
T8 sequence (Q5NUL3 1-361): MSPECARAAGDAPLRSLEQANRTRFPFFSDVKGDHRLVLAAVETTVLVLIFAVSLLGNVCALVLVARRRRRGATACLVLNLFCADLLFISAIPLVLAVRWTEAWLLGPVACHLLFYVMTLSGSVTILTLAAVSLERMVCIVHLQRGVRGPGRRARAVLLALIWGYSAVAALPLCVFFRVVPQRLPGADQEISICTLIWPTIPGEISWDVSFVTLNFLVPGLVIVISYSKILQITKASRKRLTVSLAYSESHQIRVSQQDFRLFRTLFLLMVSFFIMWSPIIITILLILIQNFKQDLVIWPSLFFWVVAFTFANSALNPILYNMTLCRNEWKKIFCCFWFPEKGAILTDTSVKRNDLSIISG

[5] = rats
[6] = in vivo
KCC2 = target: T9, KCC2 (Homo sapiens, UniProt Q9H2X9)
T9 sequence (Q9H2X9 1-1139): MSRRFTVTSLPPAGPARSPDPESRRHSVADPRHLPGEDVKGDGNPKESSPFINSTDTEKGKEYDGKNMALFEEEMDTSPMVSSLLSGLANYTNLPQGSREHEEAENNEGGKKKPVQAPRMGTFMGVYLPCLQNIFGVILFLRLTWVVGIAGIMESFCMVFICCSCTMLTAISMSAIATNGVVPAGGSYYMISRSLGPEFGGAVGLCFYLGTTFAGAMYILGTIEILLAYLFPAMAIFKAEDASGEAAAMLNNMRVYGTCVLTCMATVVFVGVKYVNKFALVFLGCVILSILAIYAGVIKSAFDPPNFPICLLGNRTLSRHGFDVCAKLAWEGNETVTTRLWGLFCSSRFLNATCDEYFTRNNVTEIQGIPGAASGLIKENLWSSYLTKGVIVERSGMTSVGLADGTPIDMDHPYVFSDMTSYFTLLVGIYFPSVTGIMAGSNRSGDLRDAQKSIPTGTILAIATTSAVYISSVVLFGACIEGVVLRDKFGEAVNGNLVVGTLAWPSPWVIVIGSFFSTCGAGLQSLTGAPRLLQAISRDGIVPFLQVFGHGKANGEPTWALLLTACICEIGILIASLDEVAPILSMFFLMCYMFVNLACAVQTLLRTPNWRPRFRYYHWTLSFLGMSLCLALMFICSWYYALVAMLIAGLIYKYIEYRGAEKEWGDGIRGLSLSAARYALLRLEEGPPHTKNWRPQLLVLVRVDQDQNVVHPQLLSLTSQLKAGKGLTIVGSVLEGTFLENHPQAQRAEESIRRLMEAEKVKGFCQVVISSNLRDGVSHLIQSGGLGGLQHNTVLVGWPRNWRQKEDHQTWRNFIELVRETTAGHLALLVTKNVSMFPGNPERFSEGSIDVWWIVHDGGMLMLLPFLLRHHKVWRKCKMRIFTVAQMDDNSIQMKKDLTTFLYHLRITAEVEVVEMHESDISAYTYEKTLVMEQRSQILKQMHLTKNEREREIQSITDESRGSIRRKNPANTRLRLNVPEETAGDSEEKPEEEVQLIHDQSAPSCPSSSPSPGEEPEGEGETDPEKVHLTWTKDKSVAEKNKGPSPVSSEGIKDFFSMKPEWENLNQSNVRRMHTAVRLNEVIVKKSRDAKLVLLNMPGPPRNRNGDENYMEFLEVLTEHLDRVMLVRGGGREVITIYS

T1 sequence (O14842 whole entry): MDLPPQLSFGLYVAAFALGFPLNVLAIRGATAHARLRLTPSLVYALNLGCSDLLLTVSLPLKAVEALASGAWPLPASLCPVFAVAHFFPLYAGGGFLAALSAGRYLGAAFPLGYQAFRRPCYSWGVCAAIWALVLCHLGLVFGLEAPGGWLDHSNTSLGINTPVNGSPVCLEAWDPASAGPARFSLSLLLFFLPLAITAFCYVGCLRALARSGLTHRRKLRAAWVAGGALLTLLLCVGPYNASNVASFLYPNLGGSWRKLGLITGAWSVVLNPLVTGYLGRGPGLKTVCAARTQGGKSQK
T4 sequence (P27112 whole entry): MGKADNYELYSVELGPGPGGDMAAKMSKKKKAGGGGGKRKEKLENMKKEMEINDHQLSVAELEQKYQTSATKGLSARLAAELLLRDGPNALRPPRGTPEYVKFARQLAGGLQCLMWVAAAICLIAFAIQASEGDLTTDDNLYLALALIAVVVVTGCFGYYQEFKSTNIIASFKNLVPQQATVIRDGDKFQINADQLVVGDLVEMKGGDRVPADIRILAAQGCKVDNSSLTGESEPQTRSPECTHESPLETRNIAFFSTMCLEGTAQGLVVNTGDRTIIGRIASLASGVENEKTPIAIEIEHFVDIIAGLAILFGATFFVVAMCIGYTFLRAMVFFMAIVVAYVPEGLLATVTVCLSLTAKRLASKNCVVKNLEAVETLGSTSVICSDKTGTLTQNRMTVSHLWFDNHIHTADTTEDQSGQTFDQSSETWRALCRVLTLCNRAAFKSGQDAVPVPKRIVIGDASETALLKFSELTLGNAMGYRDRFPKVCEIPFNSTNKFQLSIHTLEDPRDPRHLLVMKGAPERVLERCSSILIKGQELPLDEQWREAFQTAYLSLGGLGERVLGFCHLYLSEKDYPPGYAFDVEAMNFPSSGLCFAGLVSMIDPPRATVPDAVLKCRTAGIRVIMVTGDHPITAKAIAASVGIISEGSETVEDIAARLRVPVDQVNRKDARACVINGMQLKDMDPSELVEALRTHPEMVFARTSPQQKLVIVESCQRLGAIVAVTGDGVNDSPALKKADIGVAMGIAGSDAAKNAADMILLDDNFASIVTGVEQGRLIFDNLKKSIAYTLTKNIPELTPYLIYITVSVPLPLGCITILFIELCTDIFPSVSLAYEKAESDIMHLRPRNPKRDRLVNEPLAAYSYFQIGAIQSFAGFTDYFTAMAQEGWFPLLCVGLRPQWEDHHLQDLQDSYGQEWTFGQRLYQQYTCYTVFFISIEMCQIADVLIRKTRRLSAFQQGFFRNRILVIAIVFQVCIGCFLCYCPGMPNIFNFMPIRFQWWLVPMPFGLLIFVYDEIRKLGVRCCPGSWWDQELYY
T4 sequence (P18597 whole entry partner): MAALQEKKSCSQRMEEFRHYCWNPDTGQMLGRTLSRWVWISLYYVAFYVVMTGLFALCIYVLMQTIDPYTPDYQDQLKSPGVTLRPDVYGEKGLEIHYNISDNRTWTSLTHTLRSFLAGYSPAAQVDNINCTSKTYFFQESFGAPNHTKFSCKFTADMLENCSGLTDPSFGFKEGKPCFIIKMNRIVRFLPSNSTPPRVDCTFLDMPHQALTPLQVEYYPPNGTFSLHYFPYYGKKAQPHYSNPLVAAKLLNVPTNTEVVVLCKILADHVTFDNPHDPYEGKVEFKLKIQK

FFA1 pEC50 (FFA1 [1]): 7.5^b
Compound: Cc1ccccc1C#Cc1ccc(CCC(=O)O)cc1 [TUG424]
activity at FFA2 (FFA2): No activity at FFA2 and FFA3 reported (TUG424). | activity at FFA3 (FFA3): No activity at FFA2 and FFA3 reported (TUG424).

Compound: Cc1ccc(CN(Cc2ccc(-c3ccccc3S(=O)(=O)NC#N)cc2)C(=O)c2ccccc2Cl)cc1 [S0859]
inhibition of Na+-H+ exchange (NHE) (Na+-H+ exchange (NHE)): does not inhibit

Compound: O=C(Nc1nncs1)c1cccnc1 [TGN-020]
volume of brain edema associated with ischemic injury (Aquaporin 4 (AQP4)): significantly reduced

Compound: NGF: nerve growth factor injected into the stellate ganglion of dogs
QTc (stellate ganglion): shortened | QTc interval (stellate ganglion): prolonged | SCD (stellate ganglion): did not cause SCD | risk of SCD (stellate ganglion): 50%

FFA1 pEC50 (FFA1 [2]): 5.2-5.3
Compound: CCCCCCCCCCCCCCCC(=O)O [Palmitic acid (C18:0), Palmitic acid]

IC50 (H+K+ATPase): 200 µM
Compound: Cc1nc2c(OCc3ccccc3)nccn2c1N [SCH 32651]

FFA1 pEC50 (FFA1 [2]): 6.6-7.3 | pEC50 for PPARα (PPARα): 4.0 | pEC50 for PPARδ (PPARδ): 4.0 | pEC50 for PPARγ (PPARγ): 4.9
Compound: O=C(O)CCc1ccc(NCc2cccc(Oc3ccccc3)c2)cc1 [GW9508]

affinity of Na/K ATPase pump inhibition (Na/K ATPase): comparable to ouabain
Compound: O=c1c2ccc(O)c(O)c2oc2c(O)c(O)ccc12 [3,4,5,6-Tetrahydroxyxanthone]

FFA1 pEC50 (FFA1 [3]): 5.0-5.6^a
Compound: CN(CCOc1ccc(CC2SC(=O)NC2=O)cc1)c1ccccn1 (centres unmarked) [Rosiglitazone]

Compound: C=C1C[C@@]23CC[C@H]4[C@@](C)(CCC[C@@]4(C)C(=O)O[C@@H]4O[C@H](CO)[C@@H](O)[C@H](O)[C@H]4O)[C@@H]2CC[C@]1(O[C@@H]1O[C@H](CO)[C@@H](O)[C@H](O)[C@H]1O[C@@H]1O[C@H](CO)[C@@H](O)[C@H](O)[C@H]1O)C3 [Stevioside]
interaction with organic anion transporters (OAT) [4]: no interaction | genotoxic effects (cultured mammalian cells): genotoxic effects

FFA1 pEC50 (FFA1 [2]): 4.4-5.7
Compound: CCCCCCCC/C=C\CCCCCCCC(=O)O [Oleic acid (C18:1), Oleic acid]

FFA1 pEC50 (FFA1 [2]): 4.7 | GPR120 pEC50 (GPR120): 5.9 | PPARα agonist activity (PPARα; at 100 μM): Lacks PPARα, δ, and γ | PPARδ agonist activity (PPARδ; at 100 μM): Lacks PPARα, δ, and γ | PPARγ agonist activity (PPARγ; at 100 μM): Lacks PPARα, δ, and γ
Compound: O=C(O)CCCc1ccc(OCCN(c2ccccc2)c2ccccn2)cc1 [NCG21 (Cpd 12)]

peripheral sensory axonopathy [6]: causes peripheral sensory axonopathy
Compound: N=C(N)NC(=O)c1cnn(-c2cccc3ncccc23)c1C1CC1 [Zoniporide]
swelling of human platelets (human platelets): inhibits | cardiac contractile dysfunction [5]: attenuates

IC50 (H+K+ATPase): 2.5 µM
Compound: Cc1nc2c(OCc3ccccc3)cccn2c1CC#N [SCH-28080]

selectivity for KCC2 over NKCCI (KCC2): selective
Compound: Cc1csc(NC(=O)CSc2ccc(-c3ccccc3)nn2)n1 [VU024055 1]

Compound: CC/C=C\C/C=C\C/C=C\C/C=C\C/C=C\C/C=C\CCC(=O)O [DHA (C22:6), DHA]
FFA1 pEC50 (FFA1 [2]): 5.4-6.0 | GPR120 pEC50 (GPR120): 5.4
